In PMC9742639, “Inhibition of glycogen synthase kinase-3-beta (GSK3β) blocks nucleocapsid phosphorylation and SARS-CoV-2 replication” (Molecular Biomedicine, 2022):
“And” between values parts separate entries of the source, which are not always exact repeats. Equal values may be shown once. Read-outs that look alike come from different tables or passages of the source. Square brackets hold non-standard residues; d marks the D form. Primed or numbered codes have the meaning given here. Ends that are not written are not given here. pS′ = not defined here; pT′ = not defined here

Key:
GSK3b = molecular target: T1, GSK3b (Homo sapiens, UniProt P49841); assay: In vitro phosphorylation of nucleocapsid peptides, ADP-Glo; assay type: biochemical; conditions: for Phosphorylation by GSK3b (Table 2): Mean ± Standard deviation, n = 3, no peptide substrate 1995 ± 133; for Relative phosphorylation by GSK3b: kinase with ATP alone, no peptide = 100, peptide ~250 μM, ATP 250 μM, 30 min
T1 construct: GST; purchased SignalChem G09-10G
T1 sequence (P49841 whole entry): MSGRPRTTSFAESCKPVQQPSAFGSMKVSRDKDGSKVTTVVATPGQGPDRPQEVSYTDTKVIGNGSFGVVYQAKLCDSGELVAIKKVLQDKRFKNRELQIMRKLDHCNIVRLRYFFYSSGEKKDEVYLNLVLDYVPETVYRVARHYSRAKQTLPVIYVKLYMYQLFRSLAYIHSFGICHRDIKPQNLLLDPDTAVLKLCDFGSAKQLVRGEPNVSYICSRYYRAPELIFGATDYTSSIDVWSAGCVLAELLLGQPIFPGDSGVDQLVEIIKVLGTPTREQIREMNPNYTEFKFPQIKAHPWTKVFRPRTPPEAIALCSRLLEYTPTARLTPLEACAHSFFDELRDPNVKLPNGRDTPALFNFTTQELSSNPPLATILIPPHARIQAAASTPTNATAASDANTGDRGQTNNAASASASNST

PKCa = molecular target: T2, PKCa (Homo sapiens, UniProt P17252); assay: as above; assay type: biochemical; conditions: for Phosphorylation by PKCa (Table 2): Mean ± Standard deviation, n = 3, no peptide substrate 1282 ± 51; for Relative phosphorylation by PKCa: kinase with ATP alone, no peptide = 100, peptide ~250 μM, ATP 250 μM, 30 min
T2 construct: GST; purchased SignalChem P61-18G

PKACa = PKACa (Homo sapiens, UniProt P17612); assay: as above; assay type: biochemical; conditions: kinase with ATP alone, no peptide = 100; peptide ~250 μM, ATP 250 μM, 30 min
HCoV-229E [1] = assay: High-content screen / dose-response of HCoV-229E-infected Huh-7.5.1 cells (dsRNA); assay type: cell-based
in vitro = conditions: human
Experimental: (§1) Total number of cells (via nuclei staining) and number of virus-infected cells (via dsRNA and nucleocapsid staining) was measured using the CellInsight CX5 High Content Screening platform (Thermo Fisher), as previously described [24]. Briefly, cell nuclei are stained with Hoechst (33342) for detection at the 350/461 nm wavelength and a region of interest (ROI) marks each cell, which is verified using cell membrane imaging in the bright field. The ROI includes the areas where dsRNA (485/521 nm wavelength) and SARS-CoV-2 nucleocapsid (533/588 nm wavelength) are localized. The software (HCS Studio Cell Analysis Software, version 4.0) tallies ROIs where dsRNA and nucleocapsid are located within stained nuclei by compiling pixel area and intensity measurements. The fluorescence emitted by the dsRNA and nucleocapsid are then quantified for each well. The total intensity of each well indicates the viral load and is normalized against non-infected cells and untreated infected cells. Cell loss (from cytotoxicity or poor adherence) was quantified using the same stain (Hoechst 33342) and was used to normalize the changes in viral load resulting from a decrease in cell numbers. Based on average variation in control treatments between experiments, significant cell loss was considered a loss of > 20% cells relative to the non-infected control.

Huh-7.5.1 cells = assay: Cell loss / toxicity to Huh-7.5.1 host cells (nuclei count); conditions: 10 µM, infected Huh-7.5.1 cells
Experimental: as §1

SARS-CoV-2 [2] = assay: High-content screen / dose-response of SARS-CoV-2-infected Huh-7.5.1 cells (dsRNA, nucleocapsid); assay type: cell-based; conditions: for ED50, activity against SARS-CoV-2 / inhibition at 10 µM: Huh-7.5.1 cells; for ED50, activity against SARS-CoV-2: intracellular N protein; for inhibition at 10 µM: Severe acute respiratory syndrome coronavirus 2
CK2a1 = molecular target: T3, CK2a1 (Homo sapiens, UniProt P68400); assay: In vitro phosphorylation of nucleocapsid peptides, ADP-Glo; assay type: biochemical; conditions: kinase with ATP alone, no peptide = 100; peptide ~250 μM, ATP 250 μM, 30 min
T3 construct: GST; purchased SignalChem C70-10G
T3 sequence (P68400 whole entry): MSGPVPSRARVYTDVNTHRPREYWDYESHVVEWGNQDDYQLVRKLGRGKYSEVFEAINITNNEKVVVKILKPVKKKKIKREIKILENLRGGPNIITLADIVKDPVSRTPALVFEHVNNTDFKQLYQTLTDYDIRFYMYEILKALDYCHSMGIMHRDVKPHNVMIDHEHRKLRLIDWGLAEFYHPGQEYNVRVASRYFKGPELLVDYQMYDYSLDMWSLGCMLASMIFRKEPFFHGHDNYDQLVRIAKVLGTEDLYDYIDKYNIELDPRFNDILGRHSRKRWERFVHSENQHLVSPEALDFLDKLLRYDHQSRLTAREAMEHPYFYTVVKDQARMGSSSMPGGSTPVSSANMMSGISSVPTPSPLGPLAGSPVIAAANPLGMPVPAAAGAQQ

CDK2 + Cyclin A2 = CDK2 + Cyclin A2 (Homo sapiens, UniProt P24941); assay: as above; assay type: biochemical; conditions: kinase with ATP alone, no peptide = 100; peptide ~250 μM, ATP 250 μM, 30 min
ERK1 = molecular target: T4, ERK1 (Homo sapiens, UniProt P27361); assay: as above; assay type: biochemical; conditions: kinase with ATP alone, no peptide = 100; peptide ~250 μM, ATP 250 μM, 30 min
T4 construct: GST; purchased SignalChem M29-10G
T4 sequence (P27361 whole entry): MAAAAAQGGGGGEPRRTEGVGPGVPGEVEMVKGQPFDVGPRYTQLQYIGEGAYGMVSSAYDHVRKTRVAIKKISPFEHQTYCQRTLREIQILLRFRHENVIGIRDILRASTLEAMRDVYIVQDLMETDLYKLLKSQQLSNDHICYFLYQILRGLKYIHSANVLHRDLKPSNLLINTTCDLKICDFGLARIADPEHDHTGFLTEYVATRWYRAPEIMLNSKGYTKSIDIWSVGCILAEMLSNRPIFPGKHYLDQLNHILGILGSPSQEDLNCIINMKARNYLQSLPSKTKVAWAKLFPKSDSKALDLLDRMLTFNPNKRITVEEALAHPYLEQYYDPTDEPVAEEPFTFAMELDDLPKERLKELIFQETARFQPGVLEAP

CK1a1 = molecular target: T5, CK1a1 (Homo sapiens, UniProt P48729); assay: as above; assay type: biochemical; conditions: kinase with ATP alone, no peptide = 100; peptide ~250 μM, ATP 250 μM, 30 min
T5 construct: GST; purchased SignalChem C64-10G
T5 sequence (P48729 whole entry): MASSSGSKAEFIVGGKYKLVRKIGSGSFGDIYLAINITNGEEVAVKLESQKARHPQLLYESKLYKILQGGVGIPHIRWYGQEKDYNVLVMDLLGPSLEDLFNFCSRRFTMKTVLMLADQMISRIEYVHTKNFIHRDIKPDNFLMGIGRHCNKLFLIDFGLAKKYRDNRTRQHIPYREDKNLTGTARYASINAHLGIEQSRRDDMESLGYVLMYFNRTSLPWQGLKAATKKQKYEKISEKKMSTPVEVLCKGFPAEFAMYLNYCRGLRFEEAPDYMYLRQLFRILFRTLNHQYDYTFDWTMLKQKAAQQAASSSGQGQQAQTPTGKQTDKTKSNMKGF

CK1d = molecular target: T6, CK1d (Homo sapiens, UniProt P48730); assay: as above; assay type: biochemical; conditions: kinase with ATP alone, no peptide = 100; peptide ~250 μM, ATP 250 μM, 30 min
T6 construct: GST; purchased SignalChem C65-10G
T6 sequence (P48730 whole entry): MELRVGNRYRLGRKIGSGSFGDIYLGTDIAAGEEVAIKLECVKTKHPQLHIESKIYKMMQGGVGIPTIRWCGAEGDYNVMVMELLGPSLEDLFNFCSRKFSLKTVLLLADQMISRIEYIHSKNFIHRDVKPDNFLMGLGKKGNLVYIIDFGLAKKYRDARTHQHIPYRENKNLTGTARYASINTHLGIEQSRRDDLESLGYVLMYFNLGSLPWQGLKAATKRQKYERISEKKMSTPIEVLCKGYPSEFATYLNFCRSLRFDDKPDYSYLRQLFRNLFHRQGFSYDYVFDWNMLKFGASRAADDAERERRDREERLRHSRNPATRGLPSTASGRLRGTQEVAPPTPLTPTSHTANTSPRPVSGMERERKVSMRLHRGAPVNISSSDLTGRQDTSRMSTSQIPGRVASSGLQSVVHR

SARS-CoV-2 [3] = assay: SARS-CoV-2 infection of primary donor-derived colon organoids (intracellular N protein); assay type: cell-based; conditions: donor intestinal organoids monolayer, 72 hrs post-infection
HCoV-229E [4] = assay: Chou-Talalay synergy with Remdesivir in HCoV-229E-infected cells; assay type: cell-based; conditions: Chou-Talalay method, CI < 1 synergistic
Experimental: Statistical analyses were performed and figures were prepared using GraphPad Prism 9™ (GraphPad Software, Inc.). Imbedded blots and fluorescent images were generated using GIMP^©. Chou-Talalay synergy analysis was performed using CompuSyn (ComboSyn Inc.). CI values < 1 are defined as synergistic, CI = 1 as additive, and CI > 1 as antagonistic.
Supplemental Figure S4: Synergy experiment. Dose-response combination of Remdesivir (Rem) and T-1686568 (T2) using CompuSyn V1.0. Representative experiment of two independent experiments.

SARS-CoV-2 [5] = assay: Viral titer from 48-h SARS-CoV-2-infected Calu-3 cells; assay type: cell-based; conditions: 48 h after infection and treatment, 100 μM
GSK3β = molecular target: T7, GSK3β (Homo sapiens, UniProt P49841); assay: In vitro inhibition of GSK3β, ADP-Glo Kinase Assay; assay type: biochemical; conditions: read-out: IC50, GSK3β enzymatic activity
T7 construct: GST; purchased SignalChem G09-10G
T7 sequence (P49841 whole entry): as the sequence (P49841 whole entry) above
Experimental: All protein kinase reactions were performed with the ADP-Glo Kinase Assay from ProMega (Madison, WI, USA). Substrate peptides were assayed at a final concentration of ~ 250 μM with 250 μM ATP for 30 min at 30 °C in a final volume of 25 μL. Recombinant nucleocapsid was similarly assayed at a final concentration of 13.4 ng/μL. The concentrations of recombinant protein kinases used were ~ 2 ng/μL.
Supplemental Figure S3: in vitro inhibition of GSK3. ADP-Glo^TM Kinase Assay normalized to the negative control (100% kinase activity), dose-response was analyzed by non-linear regression.

SARS-CoV-2 [6] = assay type: cell-based
CK1g1 = molecular target: T8, CK1g1 (Homo sapiens, UniProt Q9HCP0); assay: In vitro phosphorylation of nucleocapsid peptides, ADP-Glo; assay type: biochemical; conditions: kinase with ATP alone, no peptide = 100; peptide ~250 μM, ATP 250 μM, 30 min
T8 construct: GST; purchased SignalChem C68-11G
T8 sequence (Q9HCP0 whole entry): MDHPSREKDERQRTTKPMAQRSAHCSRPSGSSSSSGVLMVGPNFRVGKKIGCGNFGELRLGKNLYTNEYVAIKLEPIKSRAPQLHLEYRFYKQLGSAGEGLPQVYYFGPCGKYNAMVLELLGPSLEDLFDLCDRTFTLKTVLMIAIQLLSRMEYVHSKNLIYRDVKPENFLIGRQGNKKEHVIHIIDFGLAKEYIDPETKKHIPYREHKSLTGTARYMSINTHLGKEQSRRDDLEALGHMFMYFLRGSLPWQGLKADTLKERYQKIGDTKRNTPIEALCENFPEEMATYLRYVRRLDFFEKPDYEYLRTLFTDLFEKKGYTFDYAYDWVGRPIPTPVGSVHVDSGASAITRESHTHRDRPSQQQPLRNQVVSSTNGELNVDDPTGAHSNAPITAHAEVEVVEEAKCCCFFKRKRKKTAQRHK

[7] = average of screens 1 and 2, read-out: Average SARS-CoV-2 Nucleocapsid inhibition
[8] = screen 1, read-out: SARS-CoV-2 inhibition (% Nucleocapsid) 1
[9] = screen 2, read-out: SARS-CoV-2 inhibition (% Nucleocapsid) 2
[10] = read-out: SARS-CoV-2 inhibition (% dsRNA)

Row | Compound | Phosphorylation by GSK3b (Table 2) (GSK3b) | Relative phosphorylation by GSK3b (GSK3b) | Phosphorylation by PKCa (Table 2) (PKCa) | Relative phosphorylation by PKCa (PKCa) | Relative phosphorylation by PKACa (PKACa) | ED50, activity against HCoV-229E (HCoV-229E [1]) | CC50 (in vitro) [µM] | Average cell loss (%) (Huh-7.5.1 cells) | ED50, activity against SARS-CoV-2 (SARS-CoV-2 [2]) | inhibition at 10 µM (SARS-CoV-2 [2]; [7]) [%] | inhibition at 10 µM (SARS-CoV-2 [2]; [8]) [%] | inhibition at 10 µM (SARS-CoV-2 [2]; [9]) [%] | inhibition at 10 µM (SARS-CoV-2 [2]; [10]) [%] | also measured
1 | RGGSQASSRSS(pS)RS (RGGSQASSRSS[pS′]RS) [SCV2-N [177-190] - pS188, synthetic peptide modeled after SARS-CoV-2 nucleocapsid phosphorylation sites, pre-phosphorylated at S188] | 24,585 ± 645 | 1209 | 3861 ± 71 | 389 | 128 | – | – | – | – | – | – | – | – | –
2 | C[S+]([O-])c1ccc(-c2coc3ccc(-c4nnc(SCc5cccc(F)c5)o4)cc23)cc1 (stereo not shown) [P-7657632] | – | – | – | – | – | ~ 3 μM | 39 | 25.4 | ~ 3 μM and 2.9 μM | 93.1 | 100 | 86.2 | 100 | –
3 | SQASSRSSSR(pS)RNS (SQASSRSSSR[pS′]RNS) [SCV2-N [180-193] - pS190, synthetic peptide modeled after SARS-CoV-2 nucleocapsid phosphorylation sites, pre-phosphorylated at S190] | 2957 ± 3 | 111 | 4161 ± 66 | 418 | 312 | – | – | – | – | – | – | – | – | Relative phosphorylation by CK2a1 (CK2a1): 100
4 | SSRSRNSSRNS(pT)PG (SSRSRNSSRNS[pT′]PG) [SCV2-N [187-200] - pT198, synthetic peptide modeled after SARS-CoV-2 nucleocapsid phosphorylation sites, pre-phosphorylated at T198] | 23,031 ± 486 | 1042 | 7032 ± 319 | 553 | 157 | – | – | – | – | – | – | – | – | Relative phosphorylation by CDK2 + Cyclin A2 (CDK2 + Cyclin A2): 101; Relative phosphorylation by CK2a1 (CK2a1): 102; Relative phosphorylation by ERK1 (ERK1): 100; Relative phosphorylation by CK1a1 (CK1a1): 250; Relative phosphorylation by CK1d (CK1d): 152
5 | CSc1ccc(-n2cnc3ccc(-c4nnc(CCc5cccc(C#N)c5)o4)cc32)cc1 [P-0717632] | – | – | – | – | – | ~ 3 μM | > 100 | 24.4 | 2.7 µM | 79.3 | 75.2 | 83.3 | 68.2 | effect on intracellular N protein levels (SARS-CoV-2 [3]): greatly decrease intracellular N protein levels; average Combination Index (CI) (HCoV-229E [4]): 0.7; reduction of viral titres (SARS-CoV-2 [5]): 2 log; IC50 (GSK3β): 0.102 µM; N protein in remaining infected cells (SARS-CoV-2 [6]): accumulated; S protein expression (SARS-CoV-2 [6]): reduced; ED50, activity against SARS-CoV-2 (SARS-CoV-2 [2]; listed as T-1686568): ~ 3 μM; ED80 (SARS-CoV-2 [2]; infected Huh-7.5.1 cells): 10 µM
6 | CSc1ccc(-c2coc3ccc(-c4nnc(N)o4)cc23)cc1Cl [P-9071942] | – | – | – | – | – | ~ 3 μM | 27 | 29.9 | ~ 3 μM and 3.3 μM | 94.5 | 100 | 89.1 | 100 | –
7 | RNSTPGSSRGT(pS)PAR (RNSTPGSSRGT[pS′]PAR) [SCV2-N [195-209] - pS206, synthetic peptide modeled after SARS-CoV-2 nucleocapsid phosphorylation sites, pre-phosphorylated at S206] | 24,082 ± 381 | 1068 | 1531 ± 47 | – | 205 | – | – | – | – | – | – | – | – | Relative phosphorylation by CDK2 + Cyclin A2 (CDK2 + Cyclin A2): 100; Relative phosphorylation by ERK1 (ERK1): 100; Relative phosphorylation by CK1g1 (CK1g1): 105; Relative phosphorylation by CK1d (CK1d): 105
